For this data set, the system named is PBS pH 7.4 stability, LC-MS/MS, 48 h. In words: Inhibitors of Human alpha-Glucosidase: PBS Stability Profiling. As to conditions: at 20 µM; active compounds read high. The text has this:
Alpha-glucosidase is responsible for the hydrolysis of terminal, non-reducing 1,4-linked alpha-D-glucose residues, which releases alpha-D-glucose. It is a lysosomal hydrolase that is required for the degradation of a small percentage (1-3%) of cellular glycogen in humans. Deficiency of this enzyme results in glycogen-storage disease type II (GSDII), also referred to as Pompe disease, an autosomal recessive disorder. Structurally normal glycogen is accumulated in the lysosomes and cytoplasm in affected patients, primarily in muscle tissues. Excessive glycogen storage within lysosomes may interrupt normal functioning of other organelles and leads to cellular injury. In turn, this leads to enlargement and dysfunction of the entire organ involved (eg: cardiomyopathy and muscle weakness). The stability of the lead compound in PBS buffer is tested because this parameter has a significant impact on many ADME-concerned properties of drugs, such as uptake, distribution, transport, and eventually bioavailability. NIH Chemical Genomics Center [NCGC] NIH Molecular Libraries Probe Production Centers Network [MLPCN] […]
20uM of compound is incubated in PBS buffer at pH 7.4 at […]; the reference compound is procaine. Compounds are incubated at 37 deg C for the pre-determined time periods and the when aliquots are removed. Samples are analyzed with LC-MS/MS.

Our source for the percent remaining values is PubChem BioAssay AID504681 (National Center for Advancing Translational Sciences (NCATS), 2011).

With `CC(=O)c1ccc(N2CCN(S(=O)(=O)c3ccc4c(c3)CC(=O)N4)CC2)cc1`, the percent remaining was 100%.
